Tests used:
Assay in all cases: Test D pre-/postemergence herbicide test
radish, wild = assay type: in vivo, Raphanus raphanistrum; settings: for Plant response rating: Postemergence, Radish, Wild, scale 0 to 100; for Plant response rating, Radish, Wild: Preemergence, scale 0 to 100 (0 no effect, 100 complete control)
Excerpt: (§1) Seeds of plant species selected from bluegrass (annual bluegrass, Poa annua), blackgrass (Alopecurus myosuroides), canarygrass (littleseed canarygrass, Phalaris minor), chickweed (common chickweed, Stellaria media), galium (catchweed bedstraw, Galium aparine), bromegrass, downy (downy bromegrass, Bromus tectorum), field poppy (Papaver rhoeas), field violet (Viola arvensis), foxtail, green (green foxtail, Setaria viridis), deadnettle (henbit deadnettle, Lamium amplexicaule), ryegrass, Italian (Italian ryegrass, Lolium multiflorum), kochia (Kochia scoparia), lambsquarters (Chenopodium album), oilseed rape (Brassica napus), pigweed (Amaranthus retroflexus), chamomile (scentless chamomile, Matricaria inodora), Russian thistle (Salsola kali), speedwell (bird's-eye speedwell, Veronica persica), barley, spring (spring barley, Hordeum vulgare), wheat, spring (spring wheat, Triticum aestivum), buckwheat, wild (wild buckwheat, Polygonum convolvulus), mustard, wild (wild mustard, Sinapis arvensis), oat, wild (wild oat, Avena fatua), radish, wild (wild radish, Raphanus raphanistrum), […]), barley, winter (winter barley, Hordeum vulgare), and wheat, winter (winter wheat, Triticum aestivum) were planted into a silt loam soil and treated preemergence with test chemicals formulated in a non-phytotoxic solvent mixture which included a surfactant. At the same time, these species were planted in pots containing Redi-Earth® planting medium (Scotts Company, 14111 Scottslawn Road, Marysville, Ohio 43041) comprising spaghnum peat moss, vermiculite, wetting agent and starter nutrients and treated with postemergence applications of the test chemicals formulated in the same manner. Plants ranged in height from 2 to 18 cm (1- to 4-leaf stage). Treated plants and controls were maintained in a controlled growth environment for 7 to 21 days after which time all species were compared to controls and visually evaluated. Plant response ratings, summarized in Table D, are based on a scale of 0 to 100 where 0 is no effect and 100 is complete control. A dash (-) response means no test result.

pigweed = assay type: in vivo, Amaranthus retroflexus; settings: for Plant response rating: Postemergence, Pigweed, scale 0 to 100; for Plant response rating, Pigweed: Preemergence, scale 0 to 100 (0 no effect, 100 complete control)
Excerpt: as §1

field violet = assay type: in vivo, Viola arvensis; settings: for Plant response rating: Field Violet, scale 0 to 100; for Plant response rating, Field Violet: scale 0 to 100 (0 no effect, 100 complete control)
Excerpt: as §1

wheat, spring = assay type: in vivo, Triticum aestivum; settings: for Plant response rating: Postemergence, Wheat, Spring, scale 0 to 100; for Plant response rating, Wheat, Spring: Preemergence, scale 0 to 100 (0 no effect, 100 complete control)
Excerpt: as §1

wheat, winter = assay type: in vivo, Triticum aestivum; settings: for Plant response rating: Postemergence, Wheat, Winter, scale 0 to 100; for Plant response rating, Wheat, Winter: Preemergence, scale 0 to 100 (0 no effect, 100 complete control)
Excerpt: as §1

canarygrass = assay type: in vivo, Phalaris minor; settings: for Plant response rating: Canarygrass, scale 0 to 100; for Plant response rating, Canarygrass: scale 0 to 100 (0 no effect, 100 complete control)
Excerpt: as §1

O=C1NCC(c2ccc(F)c(F)c2)C1C(=O)Nc1cccc(F)c1 (racemic) [Compound 12]
Plant response rating (radish, wild; 16 g ai/ha): 0
Plant response rating (radish, wild; 31 g ai/ha): 0
Plant response rating (radish, wild; 62 g ai/ha): 20
Plant response rating (radish, wild; 125 g ai/ha): 25
Plant response rating (radish, wild; 250 g ai/ha): 25
Plant response rating, Radish, Wild (radish, wild; 16 g ai/ha): 0
Plant response rating (pigweed; 16 g ai/ha): 0
Plant response rating (pigweed; 31 g ai/ha): 10
Plant response rating (pigweed; 62 g ai/ha): 25
Plant response rating (pigweed; 125 g ai/ha): 30
Plant response rating (pigweed; 250 g ai/ha): 50
Plant response rating, Pigweed (pigweed; 31 g ai/ha): 0
Plant response rating, Pigweed (pigweed; 62 g ai/ha): 0
Plant response rating, Pigweed (pigweed; 125 g ai/ha): 0
Plant response rating, Pigweed (pigweed; 250 g ai/ha): 0
Plant response rating, Pigweed (pigweed; 16 g ai/ha): 0
Plant response rating (field violet; Postemergence, 16 g ai/ha): 0
Plant response rating (field violet; Postemergence, 31 g ai/ha): 0
Plant response rating (field violet; Postemergence, 62 g ai/ha): 30
Plant response rating (field violet; Postemergence, 125 g ai/ha): 35
Plant response rating (field violet; Postemergence, 250 g ai/ha): 40
Plant response rating, Field Violet (field violet; Preemergence, 31 g ai/ha): 0
Plant response rating, Field Violet (field violet; Preemergence, 62 g ai/ha): 0
Plant response rating, Field Violet (field violet; Preemergence, 16 g ai/ha): 0
Plant response rating (field violet; Preemergence, 125 g ai/ha): 0
Plant response rating (field violet; Preemergence, 250 g ai/ha): 0
Plant response rating (wheat, spring; 16 g ai/ha): 0
Plant response rating (wheat, spring; 31 g ai/ha): 0
Plant response rating (wheat, spring; 62 g ai/ha): 0
Plant response rating (wheat, spring; 125 g ai/ha): 0
Plant response rating (wheat, spring; 250 g ai/ha): 0
Plant response rating, Wheat, Spring (wheat, spring; 31 g ai/ha): 0
Plant response rating, Wheat, Spring (wheat, spring; 62 g ai/ha): 0
Plant response rating, Wheat, Spring (wheat, spring; 125 g ai/ha): 0
Plant response rating, Wheat, Spring (wheat, spring; 250 g ai/ha): 0
Plant response rating, Wheat, Spring (wheat, spring; 16 g ai/ha): 0
Plant response rating (wheat, winter; 16 g ai/ha): 0
Plant response rating (wheat, winter; 31 g ai/ha): 0
Plant response rating (wheat, winter; 62 g ai/ha): 0
Plant response rating (wheat, winter; 125 g ai/ha): 0
Plant response rating (wheat, winter; 250 g ai/ha): 0
Plant response rating, Wheat, Winter (wheat, winter; 31 g ai/ha): 0
Plant response rating, Wheat, Winter (wheat, winter; 62 g ai/ha): 0
Plant response rating, Wheat, Winter (wheat, winter; 125 g ai/ha): 0
Plant response rating, Wheat, Winter (wheat, winter; 250 g ai/ha): 0
Plant response rating, Wheat, Winter (wheat, winter; 16 g ai/ha): 0
Plant response rating (canarygrass; Postemergence, 16 g ai/ha): 0
Plant response rating (canarygrass; Postemergence, 31 g ai/ha): 0
Plant response rating (canarygrass; Postemergence, 62 g ai/ha): 15
Plant response rating (canarygrass; Postemergence, 125 g ai/ha): 15
Plant response rating (canarygrass; Postemergence, 250 g ai/ha): 30
Plant response rating, Canarygrass (canarygrass; Preemergence, 31 g ai/ha): 0
Plant response rating, Canarygrass (canarygrass; Preemergence, 62 g ai/ha): 0
Plant response rating, Canarygrass (canarygrass; Preemergence, 16 g ai/ha): 0
Plant response rating (canarygrass; Preemergence, 125 g ai/ha): 20
Plant response rating (canarygrass; Preemergence, 250 g ai/ha): 40

O=C1NCC(c2cc(F)c(F)c(F)c2)C1C(=O)Nc1ccccc1C(F)(F)F (racemic) [Compound 33]
Plant response rating (radish, wild; 16 g ai/ha): 0
Plant response rating (radish, wild; 31 g ai/ha): 0
Plant response rating (radish, wild; 62 g ai/ha): 0
Plant response rating (radish, wild; 125 g ai/ha): 0
Plant response rating (radish, wild; 250 g ai/ha): 0
Plant response rating (pigweed; 16 g ai/ha): 0
Plant response rating (pigweed; 31 g ai/ha): 0
Plant response rating (pigweed; 62 g ai/ha): 0
Plant response rating (pigweed; 125 g ai/ha): 10
Plant response rating (pigweed; 250 g ai/ha): 10
Plant response rating (field violet; Postemergence, 16 g ai/ha): 0
Plant response rating (field violet; Postemergence, 31 g ai/ha): 0
Plant response rating (field violet; Postemergence, 62 g ai/ha): 0
Plant response rating (field violet; Postemergence, 125 g ai/ha): 0
Plant response rating (field violet; Postemergence, 250 g ai/ha): 0
Plant response rating (wheat, spring; 16 g ai/ha): 0
Plant response rating (wheat, spring; 31 g ai/ha): 0
Plant response rating (wheat, spring; 62 g ai/ha): 0
Plant response rating (wheat, spring; 125 g ai/ha): 0
Plant response rating (wheat, spring; 250 g ai/ha): 0
Plant response rating (wheat, winter; 16 g ai/ha): 0
Plant response rating (wheat, winter; 31 g ai/ha): 0
Plant response rating (wheat, winter; 62 g ai/ha): 0
Plant response rating (wheat, winter; 125 g ai/ha): 0
Plant response rating (wheat, winter; 250 g ai/ha): 0
Plant response rating (canarygrass; Postemergence, 16 g ai/ha): 0
Plant response rating (canarygrass; Postemergence, 31 g ai/ha): 0
Plant response rating (canarygrass; Postemergence, 62 g ai/ha): 0
Plant response rating (canarygrass; Postemergence, 125 g ai/ha): 0
Plant response rating (canarygrass; Postemergence, 250 g ai/ha): 0

O=C1NCC(c2cc(F)c(F)c(F)c2)C1C(=O)Nc1ccccc1F (racemic) [Compound 34]
Plant response rating (radish, wild; 16 g ai/ha): 0
Plant response rating (radish, wild; 31 g ai/ha): 0
Plant response rating (radish, wild; 62 g ai/ha): 0
Plant response rating (radish, wild; 125 g ai/ha): 0
Plant response rating (radish, wild; 250 g ai/ha): 0
Plant response rating (pigweed; 16 g ai/ha): 0
Plant response rating (pigweed; 31 g ai/ha): 0
Plant response rating (pigweed; 62 g ai/ha): 0
Plant response rating (pigweed; 125 g ai/ha): 0
Plant response rating (pigweed; 250 g ai/ha): 10
Plant response rating (field violet; Postemergence, 16 g ai/ha): 0
Plant response rating (field violet; Postemergence, 31 g ai/ha): 0
Plant response rating (field violet; Postemergence, 62 g ai/ha): 0
Plant response rating (field violet; Postemergence, 125 g ai/ha): 0
Plant response rating (field violet; Postemergence, 250 g ai/ha): 20
Plant response rating (wheat, spring; 16 g ai/ha): 0
Plant response rating (wheat, spring; 31 g ai/ha): 0
Plant response rating (wheat, spring; 62 g ai/ha): 0
Plant response rating (wheat, spring; 125 g ai/ha): 0
Plant response rating (wheat, spring; 250 g ai/ha): 0
Plant response rating (wheat, winter; 16 g ai/ha): 0
Plant response rating (wheat, winter; 31 g ai/ha): 0
Plant response rating (wheat, winter; 62 g ai/ha): 0
Plant response rating (wheat, winter; 125 g ai/ha): 0
Plant response rating (wheat, winter; 250 g ai/ha): 0
Plant response rating (canarygrass; Postemergence, 16 g ai/ha): 0
Plant response rating (canarygrass; Postemergence, 31 g ai/ha): 0
Plant response rating (canarygrass; Postemergence, 62 g ai/ha): 0
Plant response rating (canarygrass; Postemergence, 125 g ai/ha): 0
Plant response rating (canarygrass; Postemergence, 250 g ai/ha): 0

O=C1NCC(c2cccc(C(F)(F)F)c2)C1C(=O)Nc1ccc(F)cc1F (racemic) [Compound 207]
Plant response rating, Radish, Wild (radish, wild; 31 g ai/ha): 15
Plant response rating, Radish, Wild (radish, wild; 62 g ai/ha): 10
Plant response rating, Radish, Wild (radish, wild; 125 g ai/ha): 15
Plant response rating, Radish, Wild (radish, wild; 250 g ai/ha): 15
Plant response rating, Pigweed (pigweed; 31 g ai/ha): 0
Plant response rating, Pigweed (pigweed; 62 g ai/ha): 0
Plant response rating, Pigweed (pigweed; 125 g ai/ha): 0
Plant response rating, Pigweed (pigweed; 250 g ai/ha): 5
Plant response rating, Field Violet (field violet; Preemergence, 31 g ai/ha): 10
Plant response rating, Field Violet (field violet; Preemergence, 62 g ai/ha): 15
Plant response rating, Field Violet (field violet; Preemergence, 125 g ai/ha): 35
Plant response rating (field violet; Preemergence, 250 g ai/ha): 35
Plant response rating, Wheat, Spring (wheat, spring; 31 g ai/ha): 5
Plant response rating, Wheat, Spring (wheat, spring; 62 g ai/ha): 10
Plant response rating, Wheat, Spring (wheat, spring; 125 g ai/ha): 10
Plant response rating, Wheat, Spring (wheat, spring; 250 g ai/ha): 10
Plant response rating, Wheat, Winter (wheat, winter; 31 g ai/ha): 0
Plant response rating, Wheat, Winter (wheat, winter; 62 g ai/ha): 15
Plant response rating, Wheat, Winter (wheat, winter; 125 g ai/ha): 10
Plant response rating, Wheat, Winter (wheat, winter; 250 g ai/ha): 20
Plant response rating, Canarygrass (canarygrass; Preemergence, 31 g ai/ha): 0
Plant response rating, Canarygrass (canarygrass; Preemergence, 62 g ai/ha): 5
Plant response rating, Canarygrass (canarygrass; Preemergence, 125 g ai/ha): 0
Plant response rating (canarygrass; Preemergence, 250 g ai/ha): 75

O=C1NCC(c2cccc(C(F)(F)F)c2)C1C(=O)Nc1cccc(F)c1F (centres unmarked) [Compound 241]
Plant response rating, Radish, Wild (radish, wild; 31 g ai/ha): 0
Plant response rating, Radish, Wild (radish, wild; 62 g ai/ha): 0
Plant response rating, Radish, Wild (radish, wild; 125 g ai/ha): 0
Plant response rating, Radish, Wild (radish, wild; 250 g ai/ha): 0
Plant response rating, Pigweed (pigweed; 31 g ai/ha): 15
Plant response rating, Pigweed (pigweed; 62 g ai/ha): 15
Plant response rating, Pigweed (pigweed; 125 g ai/ha): 85
Plant response rating, Pigweed (pigweed; 250 g ai/ha): 80
Plant response rating, Field Violet (field violet; Preemergence, 31 g ai/ha): 15
Plant response rating, Field Violet (field violet; Preemergence, 62 g ai/ha): 15
Plant response rating, Field Violet (field violet; Preemergence, 125 g ai/ha): 20
Plant response rating (field violet; Preemergence, 250 g ai/ha): 30
Plant response rating, Wheat, Spring (wheat, spring; 31 g ai/ha): 0
Plant response rating, Wheat, Spring (wheat, spring; 62 g ai/ha): 0
Plant response rating, Wheat, Spring (wheat, spring; 125 g ai/ha): 25
Plant response rating, Wheat, Spring (wheat, spring; 250 g ai/ha): 40
Plant response rating, Wheat, Winter (wheat, winter; 31 g ai/ha): 0
Plant response rating, Wheat, Winter (wheat, winter; 62 g ai/ha): 5
Plant response rating, Wheat, Winter (wheat, winter; 125 g ai/ha): 10
Plant response rating, Wheat, Winter (wheat, winter; 250 g ai/ha): 25
Plant response rating, Canarygrass (canarygrass; Preemergence, 31 g ai/ha): 20
Plant response rating, Canarygrass (canarygrass; Preemergence, 62 g ai/ha): 45
Plant response rating, Canarygrass (canarygrass; Preemergence, 125 g ai/ha): 65
Plant response rating (canarygrass; Preemergence, 250 g ai/ha): 75

From patent US10294202B2, “Pyrrolidinones as herbicides” (FMC Corporation, priority 2013, dated 2019)
